Experimental data published in patent US20250011368A1, “DLL3 TARGETING PEPTIDES AND CONSTRUCTS THEREOF” (MARIANA ONCOLOGY INC., priority 2023, published 2025).
pKd: −log10 of the molar value. Numbered stars: 1 amine (or outer) side, 2 acyl side, 3 side chain; on linkers, the order of the positions; unused ones are H or OH. Bridge positions count the residues as written; N and C are the ends. Square brackets hold non-standard residues; d marks the D form. Side chains are listed from the residue outwards. Peptide text beside a SMILES is read from it. * marks the point of attachment. X4 = O=C(O)CN1CCN(CC(=O)O)CCN(CC(=O)N[C@H]2CC[C@H](CC(=O)*)CC2)CCN(CC(=O)O)CC1; X9 = O=C(O)CN1CCN(CC(=O)O)CCN(CC(=O)NCCCOCCOCCOCCCN*)CCN(CC(=O)O)CC1; DOTA = O=C(O)CN1CCN(CC(=O)O)CCN(CC(=O)*)CCN(CC(=O)O)CC1; Trp(7-aza) = N[C@@H](Cc1c[nH]c2ncccc12)C(=O)O; 2Nal = N[C@@H](Cc1ccc2ccccc2c1)C(=O)O; Nva(3-Et) = CCC(CC)[C@H](N)C(=O)O; Cha = N[C@@H](CC1CCCCC1)C(=O)O; Chg = N[C@H](C(=O)O)C1CCCCC1; Suc = O=C(CCC(=O)[*:2])[*:1]

The compounds below were run against T1, human DLL3 (Homo sapiens, UniProt Q9NYJ7) (assay: Affinity determination by Surface Plasmon Resonance (SPR)). Settings: 25° C., biotinylated human DLL3 immobilized on streptavidin sensor chip, 1:1 binding model; read-out: SPR KD.
T1 sequence (Q9NYJ7 27-618): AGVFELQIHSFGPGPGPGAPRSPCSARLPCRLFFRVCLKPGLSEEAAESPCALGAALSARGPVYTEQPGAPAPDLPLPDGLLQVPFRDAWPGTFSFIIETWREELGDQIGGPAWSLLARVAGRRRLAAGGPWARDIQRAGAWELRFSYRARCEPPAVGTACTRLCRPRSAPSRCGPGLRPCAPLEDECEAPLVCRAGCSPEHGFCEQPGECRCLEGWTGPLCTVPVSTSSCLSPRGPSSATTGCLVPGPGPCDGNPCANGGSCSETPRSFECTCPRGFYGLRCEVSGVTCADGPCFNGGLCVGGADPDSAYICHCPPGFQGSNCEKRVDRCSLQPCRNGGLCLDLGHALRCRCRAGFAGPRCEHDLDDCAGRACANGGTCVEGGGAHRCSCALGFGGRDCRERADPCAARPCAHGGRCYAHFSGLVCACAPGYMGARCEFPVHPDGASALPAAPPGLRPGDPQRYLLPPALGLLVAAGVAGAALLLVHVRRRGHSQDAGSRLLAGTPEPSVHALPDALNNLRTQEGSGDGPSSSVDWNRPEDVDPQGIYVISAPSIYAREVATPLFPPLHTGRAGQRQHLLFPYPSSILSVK
Type: binding
Outline: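 Kinetic and affinity constants were derived by fitting sensorgrams to a 1:1 binding model. Graded compound concentrations flowed at 100 μL/minute in 20 mM phosphate running buffer with 2% DMSO over streptavidin-immobilized biotinylated human DLL3, reference-subtracted.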

pKd | SMILES
8.00 to 9.00 | CCC(CC)[C@H](NC(=O)[C@@H](NC(=O)[C@H](Cc1c[nH]c2ccccc12)NC(C)=O)[C@@H](C)O)C(=O)N[C@H]1CSSC[C@@H](C(=O)N[C@@H](Cc2c[nH]c3ncccc23)C(=O)N2CCC[C@H]2C(=O)N[C@H](CCCCNC(=O)C[C@H]2CC[C@H](NC(=O)CN3CCN(CC(=O)O)CCN(CC(=O)O)CCN(CC(=O)O)CC3)CC2)C(N)=O)NC(=O)[C@H](CC(=O)O)NC(=O)[C@H](Cc2cnc[nH]2)NC(=O)[C@H](Cc2ccc3ccccc3c2)NC(=O)[C@H](CC(N)=O)NC(=O)[C@H](CC(N)=O)NC1=O [compound 202, Ac-W-T-(Env)-C(3)-N-N-(2Nal)-H-D-C(3)-(7-Aza-W)-P-[D-Lys(Chx-DOTA)]-NH2] (Ac-WT[Nva(3-Et)]CNN[2Nal]HDC[Trp(7-aza)]P[dK](X4)-NH2; disulfide 4-10)
> 9.00 | CC(=O)N[C@@H](Cc1c[nH]c2ccccc12)C(=O)N[C@H](C(=O)N[C@H](C(=O)N[C@H]1CSSC[C@@H](C(=O)N[C@@H](Cc2c[nH]c3ncccc23)C(=O)N2CCC[C@H]2C(=O)N[C@H](CCCCNC(=O)C[C@H]2CC[C@H](NC(=O)CN3CCN(CC(=O)O)CCN(CC(=O)O)CCN(CC(=O)O)CC3)CC2)C(N)=O)NC(=O)[C@H](CC(=O)O)NC(=O)[C@H](Cc2cnc[nH]2)NC(=O)[C@H](Cc2ccc3ccccc3c2)NC(=O)[C@H](CC(N)=O)NC(=O)[C@H](CC(N)=O)NC1=O)C1CCCCC1)[C@@H](C)O [compound 203, Ac-W-T-(Chg)-C(3)-N-N-(2Nal)-H-D-C(3)-(7-Aza-W)-P-[D-Lys(Chx-DOTA)]-NH2] (Ac-WT[Chg]CNN[2Nal]HDC[Trp(7-aza)]P[dK](X4)-NH2; disulfide 4-10)

The remaining lines, values behind:

SMILES | pKd
CC(=O)N[C@@H](Cc1c[nH]c2ccccc12)C(=O)N[C@H](C(=O)N[C@@H](CC1CCCCC1)C(=O)N[C@H]1CSSC[C@@H](C(=O)N[C@@H](Cc2c[nH]c3ncccc23)C(=O)N2CCC[C@H]2C(=O)N[C@H](CCCCNC(=O)CN2CCN(CC(=O)O)CCN(CC(=O)O)CCN(CC(=O)O)CC2)C(N)=O)NC(=O)[C@H](CC(=O)O)NC(=O)[C@H](Cc2cnc[nH]2)NC(=O)[C@H](Cc2ccc3ccccc3c2)NC(=O)[C@H](C)NC(=O)[C@H](CC(N)=O)NC1=O)[C@@H](C)O [compound 198, Ac-W-T-(CHA)-C(3)-N-A-(2Nal)-H-D-C(3)-(7-Aza-W)-P-[D-Lys(DOTA)]-NH2] (Ac-WT[Cha]CNA[2Nal]HDC[Trp(7-aza)]P[dK](DOTA)-NH2; disulfide 4-10) | > 9.00
CCC(CC)[C@H](NC(=O)[C@@H](NC(=O)[C@H](Cc1c[nH]c2ccccc12)NC(C)=O)[C@@H](C)O)C(=O)N[C@H]1CSSC[C@@H](C(=O)N[C@@H](Cc2c[nH]c3ncccc23)C(=O)N2CCC[C@H]2C(=O)N[C@H](CCCCNC(=O)CN2CCN(CC(=O)O)CCN(CC(=O)O)CCN(CC(=O)O)CC2)C(N)=O)NC(=O)[C@H](CC(=O)O)NC(=O)[C@H](Cc2c[nH]cn2)NC(=O)[C@H](Cc2ccc3ccccc3c2)NC(=O)[C@H](C)NC(=O)[C@H](CC(N)=O)NC1=O [compound 199, Ac-W-T-(Env)-C(3)-N-A-(2Nal)-H-D-C(3)-(7-Aza-W)-P-[D-Lys(DOTA)]-NH2] (Ac-WT[Nva(3-Et)]CNA[2Nal]HDC[Trp(7-aza)]P[dK](DOTA)-NH2; disulfide 4-10) | > 9.00
CCC(CC)[C@H](NC(=O)[C@@H](NC(=O)[C@H](Cc1c[nH]c2ccccc12)NC(C)=O)[C@@H](C)O)C(=O)N[C@H]1CSSC[C@@H](C(=O)N[C@@H](Cc2c[nH]c3ncccc23)C(=O)N2CCC[C@H]2C(=O)N[C@H](CCCCNC(=O)CCC(=O)NCCCOCCOCCOCCCNC(=O)CN2CCN(CC(=O)O)CCN(CC(=O)O)CCN(CC(=O)O)CC2)C(N)=O)NC(=O)[C@H](CC(=O)O)NC(=O)[C@H](Cc2c[nH]cn2)NC(=O)[C@H](Cc2ccc3ccccc3c2)NC(=O)[C@H](CC(N)=O)NC(=O)[C@H](CC(N)=O)NC1=O [compound 204, Ac-W-T-(Env)-C(3)-N-N-(2Nal)-H-D-C(3)-(7-Aza-W)-P-[D-Lys(G-G-TTDS-DOTA)]-NH2] (Ac-WT[Nva(3-Et)]CNN[2Nal]HDC[Trp(7-aza)]P[dK]([Suc-X9])-NH2; disulfide 4-10) | > 9.00
